Data set [1] in a line: Microsomal stability assay, human liver microsomes. It is filed as in vitro ADME. The following applies: 37°C, NADPH regenerating system, read-out: T1/2 HLM. As for the experimental part: Test compounds were assessed for microsomal stability by incubating at 37°C in the presence of mouse or human liver microsomes and an NADPH regenerating system as described by Yang et al. ([16]). Microsomal protein content was adjusted to ensure accurate rates of substrate consumption. Analysis was performed by LC-MS/MS analysis.
For orientation: Liver microsomes are a subcellular fraction often used to study metabolism.

Another data set has as its target CYP2C9 (Homo sapiens, UniProt P11712). In words: Cytochrome P450 inhibition assay, 2C9 (fluorescent substrate). It is filed as in vitro ADME. As to conditions: expressed enzyme. As for the experimental part:
(§1) Compounds were assessed for their ability to inhibit human cytochrome P450 3A4 using testosterone as a substrate and LC-MS/MS analysis, whereas the 2D6 and 2C9 assays used fluorescent substrates and EnVision plate reader analysis. Expressed enzymes were used to minimize nonspecific binding and membrane partitioning issues ([15]).

Another data set concerns the target CYP2D6 (Homo sapiens, UniProt P10635). In words: Cytochrome P450 inhibition assay, 2D6 (fluorescent substrate). The class given is in vitro ADME. The following applies: expressed enzyme. As for the experimental part:
as §1

Data set [2] addresses T1, human 5HT7A-HEK membranes (Homo sapiens, UniProt P34969).
T1 construct: expressed in transfected cells; host or cells: HEK cells (membranes)
In words: 5-HT7 binding assay ([3H]LSD displacement). The following applies: Cheng-Prusoff. How it is done: Solutions of test compounds were a 10 mM stock in dimethyl sulfoxide (DMSO) and then further diluted 1:200 in assay buffer [50 mM tris(hydroxymethyl)aminomethane (TRIS), pH 7.5, 10 mM MgCl2, 0.5 mM ethylenediaminetetraacetic acid (EDTA)] to 50 µM (0.5% DMSO). Ten dilutions of the test compound in 0.5% DMSO/assay buffer were prepared in a twofold serial dilution to yield final compound concentrations ranging from 10 µM to 19.5 nM in the assay. In a 96-well polypropylene plate, 50 µL of assay buffer was added to all wells, and then 50 µL of 0.5% DMSO/assay buffer or 50 µM chlorpromazine or serial dilutions of test compounds were added to selected wells. To all wells, 100 µL of 0.2 mg/mL human 5HT7A-HEK membranes and 50 µL of 5 nM [^3H]lysergic acid diethylamide (LSD) in assay buffer were added. Reactions were incubated at room temperature for 1.5 h and harvested by rapid filtration onto 0.3% polyethyleneimine-treated GF/B filter plates using a Brandel harvester. […] Filter plates were dried overnight, scintillant was added, and the radioactivity retained on the filters was counted on a TopCount scintillation counter (PerkinElmer). Half maximal inhibitory concentration (IC50) and inhibitory constant (Ki) of test compounds were calculated using GraphPad’s Prism 5 nonlinear sigmoidal curve-fitting program. […] Ki values were calculated using the Cheng-Prusoff equation.

The test system of data set [3] is acute DSS-induced colitis. In words: Acute DSS-induced colitis model. It is filed as in vivo, C57BL/6 mice. The text has this:
C57BL/6 (Taconic, Cambridge City, IN) for the DSS model of colitis, as well as C57BL/6 and Rag1^−/− mice (Jackson Laboratory, Bar Harbor, ME) for the T-cell transfer model, were kept in sterilized, filter-topped cages under specific pathogen-free conditions upon arrival and fed autoclaved food. Male mice aged 8–10 wk were used for all experiments. Mice were acclimatized for 7 days before the start of any experiments. All experiments were approved by the animal ethics committee of McMaster University and conducted under Canadian guidelines for animal research.
For induction of acute colitis, DSS (molecular mass 40 kDa; ICN; Biomedicals Incorporate, Solon, OH) was added to autoclaved drinking water at a final concentration of 4 or 5% wt/vol for 5 days. For the induction of chronic colitis, DSS was added to normal drinking water at a final concentration of 4% for 5 days, followed by 7 days of water. This cycle was repeated twice thereafter, with 2% DSS. Control mice received vehicle or normal drinking water.
For acute DSS-induced colitis, C576BL/6 mice were treated with MC-170073 (10 mg/kg of body wt) or vehicle (10% DMSO in normal saline) via intraperitoneal injection once daily for 6 days, starting 1 day before the beginning of DSS. In a separate experiment, C57BL/6 mice were orally administered with MC-230078 (10 mg/kg) or vehicle twice daily for 5 days, starting from the beginning of DSS. For chronic DSS-induced colitis, C57BL/6 mice were treated with MC-170073 (10 mg/kg ip) or vehicle once daily for 6 days, starting 1 day before the beginning of the third cycle. Last, for CD4^+CD45RB^high T cell-induced chronic colitis, reconstituted Rag1^−/− mice were orally administered MC-230078 (5 mg/kg or 10 mg/kg) or a vehicle twice daily for 10 days starting from week 6 post-reconstitution of T cells.
Disease activity index (DAI) is a combined score of weight loss, stool consistency, and fecal bleeding and was blindly assessed using a previously published scoring system ([19]). This scoring system was defined as follows: weight loss: 0 = no loss; 1 = 1–5%; 2 = 5–10%; 3 = 10–20%; 4 = 20%+; stool, 0 = normal; 2 = loose stool; 4 = diarrhea; and bleeding: 0 = no blood; 2 = hemoccult positive (Hemoccult II; Beckman Coulter, Fullerton, CA); and 4 = gross blood (blood around anus). DAI was measured across all days of DSS treatment. Macroscopic damage scores were blindly scored using a previously published scoring system for DSS-induced colitis ([19]).
Colonic myeloperoxidase (MPO) levels were measured following a published protocol ([19]). Briefly, colonic tissue samples were homogenized in ice-cold 50 mmol·L^−1 potassium phosphate buffer containing 0.5% hexadecyl trimethyl ammonium bromide (pH = 6.0) (Sigma). Homogenates were centrifuged, the supernatant was removed, and an aliquot was then added to a solution containing potassium phosphate buffer, O-dianisidine, and hydrogen peroxide (Sigma-Aldrich). The absorbance was measured at 450 nm by a spectrophotometer (model EL808, BioTek). MPO level was expressed in units per milligram of tissue, where 1 U is defined as the quantity of enzyme able to convert 1 μmol hydrogen peroxide to water per minute at room temperature.
Segments of the proximal colon were washed with PBS, fixed in 10% neutral-buffered formalin, washed with ethanol, and embedded in paraffin. Hematoxylin-eosin (H&E)-stained colonic tissue sections were scored using a previously published system ([19]): crypt architecture (normal = 0; severe crypt distortion with loss of entire crypts = 3), degree of inflammatory cell infiltration (normal = 0; dense inflammatory infiltrate = 3), muscle thickening (base of crypt sits on the muscularis mucosae = 0; marked muscle thickening present = 3), goblet cell depletion (absent = 0; present = 1), and crypt abscess (absent = 0; present = 1). A breakdown of scoring criteria can be seen in Supplemental Table S1. The histological damage score is the sum of each individual score. […]

[4] abbreviates: 5% DSS 5 days, 10 mg/kg orally twice daily 5 days.
Where [5] appears, read: 5% DSS, 10 mg/kg orally twice daily 5 days.
The mark [6] stands for this setting: 5% DSS, 10 mg/kg orally twice daily, day 5 post-DSS vs vehicle.
[7] abbreviates: 4% DSS 5 days, 10 mg/kg ip once daily 6 days.
Setting [8] is: 4% DSS 5 days, 10 mg/kg ip once daily 6 days, vs vehicle-treated mice.

Bounds are passed on as bounds.

Chain of CYP2D6 (P10635 whole entry): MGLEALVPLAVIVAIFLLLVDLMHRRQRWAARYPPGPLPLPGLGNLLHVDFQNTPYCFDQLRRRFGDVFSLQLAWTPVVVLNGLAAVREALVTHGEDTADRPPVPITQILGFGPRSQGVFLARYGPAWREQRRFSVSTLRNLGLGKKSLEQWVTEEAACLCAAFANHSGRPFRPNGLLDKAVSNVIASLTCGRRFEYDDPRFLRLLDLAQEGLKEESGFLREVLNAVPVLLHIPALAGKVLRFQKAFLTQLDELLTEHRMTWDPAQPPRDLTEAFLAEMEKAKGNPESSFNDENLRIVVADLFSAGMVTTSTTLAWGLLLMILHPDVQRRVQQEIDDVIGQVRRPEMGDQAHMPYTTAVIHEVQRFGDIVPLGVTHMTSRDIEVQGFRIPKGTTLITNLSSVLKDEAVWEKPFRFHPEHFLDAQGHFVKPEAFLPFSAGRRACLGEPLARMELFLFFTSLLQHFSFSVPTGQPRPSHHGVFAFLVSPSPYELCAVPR
T1 sequence (P34969 1-445 isoform P34969-2): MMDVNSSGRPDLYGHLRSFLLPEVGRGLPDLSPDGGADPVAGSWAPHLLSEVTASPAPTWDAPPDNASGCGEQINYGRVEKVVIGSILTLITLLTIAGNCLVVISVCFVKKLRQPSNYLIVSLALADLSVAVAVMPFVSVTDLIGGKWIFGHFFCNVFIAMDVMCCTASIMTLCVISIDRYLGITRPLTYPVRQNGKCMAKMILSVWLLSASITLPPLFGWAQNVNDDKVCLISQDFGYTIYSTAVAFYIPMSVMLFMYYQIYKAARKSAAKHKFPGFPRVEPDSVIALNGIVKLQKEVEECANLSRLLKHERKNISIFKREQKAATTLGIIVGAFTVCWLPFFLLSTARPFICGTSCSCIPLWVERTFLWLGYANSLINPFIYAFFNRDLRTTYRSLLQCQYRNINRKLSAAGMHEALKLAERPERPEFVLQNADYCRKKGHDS
Chain of CYP2C9 (P11712 whole entry): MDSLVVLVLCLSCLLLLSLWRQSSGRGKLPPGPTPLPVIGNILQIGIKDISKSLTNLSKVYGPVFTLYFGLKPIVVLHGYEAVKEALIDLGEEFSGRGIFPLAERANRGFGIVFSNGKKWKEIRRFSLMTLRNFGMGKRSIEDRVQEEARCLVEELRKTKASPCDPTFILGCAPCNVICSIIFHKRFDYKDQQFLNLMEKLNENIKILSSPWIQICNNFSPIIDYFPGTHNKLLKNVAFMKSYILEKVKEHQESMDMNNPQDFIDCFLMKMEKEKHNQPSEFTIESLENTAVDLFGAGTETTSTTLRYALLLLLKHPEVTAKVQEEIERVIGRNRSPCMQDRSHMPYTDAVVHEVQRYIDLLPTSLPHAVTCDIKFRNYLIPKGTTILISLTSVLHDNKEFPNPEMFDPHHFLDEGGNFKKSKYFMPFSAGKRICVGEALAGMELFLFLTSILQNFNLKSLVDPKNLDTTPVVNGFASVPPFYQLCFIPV

In the case of `CCC1(CC)C[C@@H](CCN2CCN(c3ccc(O)cc3)CC2)OC1=O` [MC-230078], the half-life in data set [1] is 1 h. The compound further yielded an IC50 on CYP2C9 greater than 10 µM. For the same compound, at CYP2D6, the IC50 was greater than 10 µM. Besides, in data set [2], the affinity corresponds to a Ki of 0.106 µM. In data set [3] (setting [4]), the DAI entry is given as “significantly lower” and the “body weight change during DSS” value is listed as “no significant difference”. Also, in data set [3] (setting [5]), the “colonic IL-1β level” value is on record as “significantly lower” and the “colonic MPO level” value is listed as “significantly lower”. In data set [3] (setting [6]), the histological scores result is “significantly lower” and the macroscopic scores result is listed as “significantly lower”.
As to `CCC1(CC)CC(CCN2CCN(c3ccc(O)cc3)CC2)OC1=O` (stereo not drawn) [MC-170073], the half-life in data set [1] is greater than 1 h. Moreover, the IC50 on CYP2C9 was greater than 10 µM. On CYP2D6, this compound had an IC50 greater than 10 µM. The same compound yielded a Ki in data set [2] of 0.089 µM. Moreover, in data set [3] (setting [7]), the “colonic IL-1β level” value is on record as “lower levels”, the “colonic IL-6 level” value is given as “lower levels”, the “colonic MPO level” value was “lower levels” and the “colonic TNF-α level” value was “lower levels”. Besides, in data set [3] (setting [8]), the DAI scores result was “significantly lower”, the histological damage scores entry was “significantly less severe” and the macroscopic scores entry was “lower”.

Usually IC50 stands for the concentration that inhibits the measured activity by half. By Ki is commonly meant a measure of affinity in units of concentration, obtained from inhibition or displacement. Read a high Ki as lower affinity.
